Laboratory results: patent publication US8729017B2 (priority 2011, dated 2014)
Read-outs that look alike come from different tables or passages of the source. Numbered stars: 1 amine (or outer) side, 2 acyl side, 3 side chain; on linkers, the order of the positions; unused ones are H or OH. Square brackets hold non-standard residues; d marks the D form. Side chains are listed from the residue outwards. Peptide text beside a SMILES is read from it. * marks the point of attachment. γGlu = O=C(O)[C@H](CCC(=O)[*:2])N[*:1]; Palmitoyl = CCCCCCCCCCCCCCCC(=O)*; Aib = CC(C)(N)C(=O)O

Legend:
Format in all cases: cell-based
glucagon receptor = molecular target: T1, glucagon receptor (Homo sapiens, UniProt P47871); assay: cAMP induction, firefly luciferase reporter assay in HEK293 cells co-transfected with the glucagon receptor
T1 construct: expressed in transfected cells; host or cells: HEK293
Description: (§1) The ability of each peptide to induce cAMP was measured in a firefly luciferase-based reporter assay. […] At the end of the incubation, 100 μL of LucLite luminescence substrate reagent (Perkin Elmer, Wellesley, Mass.) were added to each well. […] In some instances, the in vitro agonist activity at the GIP receptor was also tested.

GIP receptor = molecular target: T2, GIP receptor (Homo sapiens, UniProt P48546); assay: in vitro agonist activity at the GIP receptor (cAMP luciferase reporter, HEK293 cells)
T2 construct: expressed in transfected cells; host or cells: HEK293
T2 sequence (P48546 22-466): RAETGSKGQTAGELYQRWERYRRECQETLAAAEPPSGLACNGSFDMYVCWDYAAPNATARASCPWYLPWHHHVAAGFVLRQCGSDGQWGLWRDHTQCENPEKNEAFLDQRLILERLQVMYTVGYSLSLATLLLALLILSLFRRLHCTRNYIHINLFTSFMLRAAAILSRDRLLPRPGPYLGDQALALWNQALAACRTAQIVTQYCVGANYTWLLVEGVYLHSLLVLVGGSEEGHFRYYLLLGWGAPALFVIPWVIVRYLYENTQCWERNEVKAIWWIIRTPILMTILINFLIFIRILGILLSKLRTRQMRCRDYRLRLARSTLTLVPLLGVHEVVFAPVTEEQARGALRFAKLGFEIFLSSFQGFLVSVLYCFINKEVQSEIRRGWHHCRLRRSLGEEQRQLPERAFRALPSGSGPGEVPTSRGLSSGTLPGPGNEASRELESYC
Description: as §1, with “It is understood that a lower EC50 indicates higher activity or potency at the receptor. […] The” for “The”

GLP-1 receptor = molecular target: T3, GLP-1 receptor (Homo sapiens, UniProt P43220); assay: cAMP induction, firefly luciferase reporter assay in HEK293 cells co-transfected with the GLP-1 receptor
T3 construct: expressed in transfected cells; host or cells: HEK293
Description: as §1

[1] = HEK293 cells, cAMP-responsive luciferase reporter, 5 hours incubation
[2] = in vitro agonist activity, read-out: EC50 (nM) at GIP receptor

T3 sequence (P43220 24-463): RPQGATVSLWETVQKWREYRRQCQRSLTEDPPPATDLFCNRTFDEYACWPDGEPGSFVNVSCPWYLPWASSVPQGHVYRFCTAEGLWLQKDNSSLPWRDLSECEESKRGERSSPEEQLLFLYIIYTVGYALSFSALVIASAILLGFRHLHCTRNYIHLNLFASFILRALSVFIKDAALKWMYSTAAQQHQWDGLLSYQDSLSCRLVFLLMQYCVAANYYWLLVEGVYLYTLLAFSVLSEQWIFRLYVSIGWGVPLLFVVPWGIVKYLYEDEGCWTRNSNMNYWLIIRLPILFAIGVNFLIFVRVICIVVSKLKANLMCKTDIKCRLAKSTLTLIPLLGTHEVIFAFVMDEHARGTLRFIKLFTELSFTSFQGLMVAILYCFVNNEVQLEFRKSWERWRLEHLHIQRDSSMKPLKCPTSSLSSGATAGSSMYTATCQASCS
T1 sequence (P47871 26-477, species assumed): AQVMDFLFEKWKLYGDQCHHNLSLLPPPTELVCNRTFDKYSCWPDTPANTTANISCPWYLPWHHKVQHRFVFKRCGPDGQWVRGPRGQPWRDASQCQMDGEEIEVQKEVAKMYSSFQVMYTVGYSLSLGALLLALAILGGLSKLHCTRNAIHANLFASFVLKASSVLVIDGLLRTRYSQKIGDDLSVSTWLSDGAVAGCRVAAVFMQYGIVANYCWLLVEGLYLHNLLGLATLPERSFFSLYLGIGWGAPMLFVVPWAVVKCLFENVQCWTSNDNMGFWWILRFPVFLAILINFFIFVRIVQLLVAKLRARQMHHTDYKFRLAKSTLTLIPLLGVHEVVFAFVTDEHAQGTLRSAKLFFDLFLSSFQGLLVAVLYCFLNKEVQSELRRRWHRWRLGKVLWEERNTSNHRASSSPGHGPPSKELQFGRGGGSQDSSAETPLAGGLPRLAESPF

| SMILES | EC50 (glucagon receptor; [1]) | EC50 (GIP receptor; [2]) | EC50 (GLP-1 receptor; [1]) | EC50 (glucagon receptor) | EC50 (GIP receptor) | EC50 (GLP-1 receptor) |
| --- | --- | --- | --- | --- | --- | --- |
| CCCCCCCCCCCCCCCC(=O)N[C@@H](CCC(=O)N[C@@H](CCC(=O)NCCCC[C@H](NC(=O)[C@H](CC(=O)O)NC(=O)[C@H](CO)NC(=O)[C@@H](NC(=O)[C@H](Cc1ccccc1)NC(=O)[C@@H](NC(=O)CNC(=O)[C@H](CCC(N)=O)NC(=O)C(C)(C)NC(=O)[C@@H](N)Cc1c[nH]cn1)[C@@H](C)O)[C@@H](C)O)C(=O)N[C@@H](CO)C(=O)N[C@@H](CCCCN)C(=O)N[C@@H](Cc1ccc(O)cc1)C(=O)N[C@@H](CC(C)C)C(=O)N[C@@H](CC(=O)O)C(=O)NC(C)(C)C(=O)N[C@@H](CCCNC(=N)N)C(=O)N[C@@H](C)C(=O)N[C@@H](C)C(=O)N[C@@H](CCC(N)=O)C(=O)N[C@@H](CC(=O)O)C(=O)N[C@@H](Cc1ccccc1)C(=O)N[C@H](C(=O)N[C@@H](CCC(N)=O)C(=O)N[C@@H](Cc1c[nH]c2ccccc12)C(=O)N[C@@H](CC(C)C)C(=O)N[C@@H](CC(C)C)C(=O)NC(C)(C)C(=O)NCC(=O)N[C@@H](CCCNC(=N)N)C(=O)NCC(N)=O)C(C)C)C(=O)O)C(=O)O [compound 29] (H-H[Aib]QGTFTSDK([γGlu-γGlu-Palmitoyl])SKYLD[Aib]RAAQDFVQWLL[Aib]GRG-NH2) | 0.014 nM | 1.65 nM | 0.007 nM | – | – | – |
| CCCCCCCCCCCCCCCC(=O)N[C@@H](CCC(=O)N[C@@H](CCC(=O)NCCCC[C@H](NC(=O)[C@H](CC(=O)O)NC(=O)[C@H](CO)NC(=O)[C@@H](NC(=O)[C@H](Cc1ccccc1)NC(=O)[C@@H](NC(=O)CNC(=O)[C@H](CCC(N)=O)NC(=O)C(C)(C)NC(=O)[C@@H](N)Cc1c[nH]cn1)[C@@H](C)O)[C@@H](C)O)C(=O)N[C@@H](CO)C(=O)N[C@@H](CCCCN)C(=O)N[C@@H](Cc1ccc(O)cc1)C(=O)N[C@@H](CC(C)C)C(=O)N[C@@H](CC(=O)O)C(=O)NC(C)(C)C(=O)N[C@@H](CCCNC(=N)N)C(=O)N[C@@H](C)C(=O)N[C@@H](C)C(=O)N[C@@H](CCC(N)=O)C(=O)N[C@@H](CC(=O)O)C(=O)N[C@@H](Cc1ccccc1)C(=O)N[C@H](C(=O)N[C@@H](CCC(N)=O)C(=O)N[C@@H](Cc1c[nH]c2ccccc12)C(=O)N[C@@H](CC(C)C)C(=O)N[C@@H](CCSC)C(=O)N[C@@H](CC(=O)O)C(=O)N[C@H](C(=O)N[C@@H](CCCCN)C(=O)N[C@H](C)C(=O)O)[C@@H](C)O)C(C)C)C(=O)O)C(=O)O [compound 32] (H-H[Aib]QGTFTSDK([γGlu-γGlu-Palmitoyl])SKYLD[Aib]RAAQDFVQWLMDTK[dA]-OH) | 0.007 nM | 2.08 nM | 0.008 nM | – | – | – |
| CCCCCCCCCCCCCCCC(=O)N[C@@H](CCC(=O)N[C@@H](CCC(=O)NCCCC[C@H](NC(=O)[C@H](CC(=O)O)NC(=O)[C@H](CO)NC(=O)[C@@H](NC(=O)[C@H](Cc1ccccc1)NC(=O)[C@@H](NC(=O)CNC(=O)[C@H](CCC(N)=O)NC(=O)C(C)(C)NC(=O)[C@@H](N)Cc1c[nH]cn1)[C@@H](C)O)[C@@H](C)O)C(=O)N[C@@H](CO)C(=O)N[C@@H](CCCCN)C(=O)N[C@@H](Cc1ccc(O)cc1)C(=O)N[C@@H](CC(C)C)C(=O)N[C@@H](CC(=O)O)C(=O)NC(C)(C)C(=O)N[C@@H](CCCNC(=N)N)C(=O)N[C@@H](C)C(=O)N[C@@H](C)C(=O)N[C@@H](CCC(N)=O)C(=O)N[C@@H](CC(=O)O)C(=O)N[C@@H](Cc1ccccc1)C(=O)N[C@H](C(=O)N[C@@H](CCC(N)=O)C(=O)N[C@@H](Cc1c[nH]c2ccccc12)C(=O)N[C@@H](CC(C)C)C(=O)N[C@@H](CCSC)C(=O)N[C@@H](CCCCN)C(=O)NCC(=O)N[C@@H](CCCNC(=N)N)C(=O)NCC(N)=O)C(C)C)C(=O)O)C(=O)O [compound 23] (H-H[Aib]QGTFTSDK([γGlu-γGlu-Palmitoyl])SKYLD[Aib]RAAQDFVQWLMKGRG-NH2; N-terminus assumed) | 0.023 nM | 1.58 nM | 0.004 nM | – | – | – |
| CCCCCCCCCCCCCCCC(=O)N[C@@H](CCC(=O)NCCCC[C@H](NC(=O)[C@H](CC(=O)O)NC(=O)[C@H](CO)NC(=O)[C@@H](NC(=O)[C@H](Cc1ccccc1)NC(=O)[C@@H](NC(=O)CNC(=O)[C@H](CCC(N)=O)NC(=O)C(C)(C)NC(=O)[C@@H](N)Cc1c[nH]cn1)[C@@H](C)O)[C@@H](C)O)C(=O)N[C@@H](CO)C(=O)N[C@@H](CCCCN)C(=O)N[C@@H](Cc1ccc(O)cc1)C(=O)N[C@@H](CC(C)C)C(=O)N[C@@H](CC(=O)O)C(=O)NC(C)(C)C(=O)N[C@@H](CCCNC(=N)N)C(=O)N[C@@H](C)C(=O)N[C@@H](C)C(=O)N[C@@H](CCC(N)=O)C(=O)N[C@@H](CC(=O)O)C(=O)N[C@@H](Cc1ccccc1)C(=O)N[C@H](C(=O)N[C@@H](CCC(N)=O)C(=O)N[C@@H](Cc1c[nH]c2ccccc12)C(=O)N[C@@H](CC(C)C)C(=O)N[C@@H](CCCCN)C(=O)N[C@@H](CC(=O)O)C(=O)NCC(=O)N[C@@H](CCCNC(=N)N)C(=O)NCC(N)=O)C(C)C)C(=O)O [compound 36] (H-H[Aib]QGTFTSDK([γGlu-Palmitoyl])SKYLD[Aib]RAAQDFVQWLKDGRG-NH2) | 0.028 nM | 0.47 nM | 0.003 nM | – | – | – |
| CCCCCCCCCCCCCCCC(=O)N[C@@H](CCC(=O)NCCCC[C@H](NC(=O)[C@H](CC(=O)O)NC(=O)[C@H](CO)NC(=O)[C@@H](NC(=O)[C@H](Cc1ccccc1)NC(=O)[C@@H](NC(=O)CNC(=O)[C@H](CCC(N)=O)NC(=O)[C@@H](C)NC(=O)[C@@H](N)Cc1cnc[nH]1)[C@@H](C)O)[C@@H](C)O)C(=O)N[C@@H](CO)C(=O)N[C@@H](CCCCN)C(=O)N[C@@H](Cc1ccc(O)cc1)C(=O)N[C@@H](CC(C)C)C(=O)N[C@@H](CC(=O)O)C(=O)N[C@@H](CCC(=O)O)C(=O)N[C@@H](CCCNC(=N)N)C(=O)N[C@@H](C)C(=O)N[C@@H](C)C(=O)N[C@@H](CCC(N)=O)C(=O)N[C@@H](CC(=O)O)C(=O)N[C@@H](Cc1ccccc1)C(=O)N[C@H](C(=O)N[C@@H](CCC(N)=O)C(=O)N[C@@H](Cc1c[nH]c2ccccc12)C(=O)N[C@@H](CC(C)C)C(=O)N[C@@H](CC(C)C)C(=O)N[C@@H](CC(=O)O)C(=O)N[C@H](C(N)=O)[C@@H](C)O)C(C)C)C(=O)O [compound 56] | – | – | – | 0.006 nM | 1.64 nM | 0.02 nM |
| CCCCCCCCCCCCCCCC(=O)N[C@@H](CCC(=O)N[C@@H](CCC(=O)NCCCC[C@H](NC(=O)[C@H](CC(=O)O)NC(=O)[C@H](CO)NC(=O)[C@@H](NC(=O)[C@H](Cc1ccccc1)NC(=O)[C@@H](NC(=O)CNC(=O)[C@H](CCC(N)=O)NC(=O)C(C)(C)NC(=O)[C@@H](N)Cc1c[nH]cn1)[C@@H](C)O)[C@@H](C)O)C(=O)N[C@@H](CO)C(=O)N[C@@H](CCCCN)C(=O)N[C@@H](Cc1ccc(O)cc1)C(=O)N[C@@H](CC(C)C)C(=O)N[C@@H](CC(=O)O)C(=O)NC(C)(C)C(=O)N[C@@H](CCCNC(=N)N)C(=O)N[C@@H](C)C(=O)N[C@@H](C)C(=O)N[C@@H](CCC(N)=O)C(=O)N[C@@H](CC(=O)O)C(=O)N[C@@H](Cc1ccccc1)C(=O)N[C@H](C(=O)N[C@@H](CCC(N)=O)C(=O)N[C@@H](Cc1c[nH]c2ccccc12)C(=O)N[C@@H](CC(C)C)C(=O)N[C@@H](CCCCN)C(=O)N[C@@H](CC(=O)O)C(=O)NCC(=O)N[C@@H](CCCNC(=N)N)C(=O)NCC(N)=O)C(C)C)C(=O)O)C(=O)O [compound 24] (H-H[Aib]QGTFTSDK([γGlu-γGlu-Palmitoyl])SKYLD[Aib]RAAQDFVQWLKDGRG-NH2; N-terminus assumed) | 0.021 nM | 1.46 nM | 0.004 nM | – | – | – |
